In patent US11958868B2, “Methods of using metal complexes to promote wound healing” (University of Macau, priority 2022, dated 2024):

How the values were obtained:
[1] = test system: wound tissue of normal and diabetic mice; assay: Wound tissue analysis (H&E, Masson's trichrome, laser doppler, CD31, Western blot, qRT-PCR) in normal and diabetic mice; assay type: in vivo
Text: (A) Timeline for in vivo experiments. (B) Image of representative wound (left) and wound closure rate (right) (n=5 mice). (C) H&E and Masson's trichrome staining of dorsal skin section and skin thickness from the top of the epidermis to the bottom of the dermis in mice after 8 days post-injury (n=4 mice). Scale bar=200 μm. (D) Laser doppler imager in dorsal skin: representative images were shown for each group (left) and baseline perfusion on back skin of mice (right) after 2 days post-injury (dotted line circle represents the wound bed in mice of each group and arrow represents perfusion intensity (n=5 mice). (E) CD31 and DAPI double staining in wound bed of mice after 8 days post-injury (n=4 mice). Scale bar=50 μm. Data are expressed as means±SD, P values were calculated using a one-way ANOVA with Tukey's multiple comparison test. #P<0.05, ##P<0.01 WT vs. db/db, *P<0.05, **P<0.01 1a vs. vehicle.
(A) Western blot analyses and quantitation of HIF-1α, VEGF, GLUT1, and EPO in wound tissue (n=3 mice). All proteins were normalized by β-actin. (B) The mRNA levels of HIF-1α target genes involved in wound healing were analyzed by qRT-PCR in wound tissues (n=5 mice). Data are expressed as means±SD, P values were calculated using a one-way ANOVA with Tukey's multiple comparison test. P<0.05, P<0.01 WT vs. db/db, *P<0.05, **P<0.01 1a vs. vehicle. S
The epithelial thickness of the regenerated skin in each group was compared using H&E staining and Masson's trichrome staining. […] One of the key processes related to wound healing is tissue angiogenesis.
After electrophoresis of protein samples (30 μg of total protein) on SDS-PAGE gels, the samples were transferred to a PVDF membrane and incubated at room temperature with blocking solution for 1 h. The membrane was treated with primary antibodies and incubated overnight at 4° C. After 1 h incubation with the secondary antibodies (Supplementary Table Sl), protein bands were visualized using ECL Western Blotting Detection Reagent (GE Healthcare).
After fixation in 4% paraformaldehyde, the skin samples were embedded in paraffin and sectioned ([…]). For histological evaluation, sections were deparaffinized and rehydrated followed by hematoxylin and eosin (H&E) and Masson's trichrome staining. For immunohistochemical staining of CD31, the wound tissue sections were deparaffinized and stained with CD31 antibody (1:1000; ABclonal, Cambridge, MA, USA). The slides were examined under ×400 magnification to identify the area with the highest vascular density, and five randomly high-power field areas of the highest microvessel density were selected for each section. The average was calculated as the microvessel density of this sample.

[2] = test system: HIF-1α activation of the HRE-driven reporter; assay: Dual luciferase reporter assay (HRE-driven luciferase activity); assay type: cell-based, Human; conditions: HEK293 cells, 8 h
Method: A library of cyclometalated Ir(III)/Rh(III) metal complexes 1-14 (as racemates) with diverse structures were selected for initial screening, in order to identify favorable substructures for the design of the next round of complexes (FIG. 1a). In cells, HIF-1α moves into the nucleus and binds to the hypoxia-response element (HRE) in the promoters of transactivated genes. In this study, the dual luciferase reporter assay (DLR) was performed to monitor the variations of HRE-driven luciferase activity induced by the complexes (FIG. 1f). Human embryonic kidney HEK293 cells were treated with complexes (10 μM) for 8 h, and the HRE-driven luciferase activity of the cell lysates was determined. Complexes that inhibit the interaction between VHL and HIF-1α would be expected to increase the level of HRE-driven luciferase activity in the cell lysates.
HEK293 cells were seeded in six well plates 24 h before transfection. HRE-luciferase plasmid (4 μg) and pRL-TK plasmid (4 μg) and TurboFect reagent (6 μL) were mixed together in serum-free DMEM medium and the resulting solution was incubated for 20 min at room temperature. The mixture was the added dropwise to the HEK293 cells in the wells. The cells were incubated for 32 h at 37° C. in a CO2 incubator before use.
The inhibition of HIF-1α activity was assayed by a reporter assay using a dual luciferase reporter assay system (Promega, Madison, WI, USA). Transiently transfected cells were treated with complexes or P1 for 8 h before measurement. Luciferase activity was integrated over a 10 second period and measured using a spectrophotometer (Spectra-max M5, Molecular Devices, USA). The results were standardization with the activity of Renilla luciferase. All data are expressed as means±SD.

[3] = ICP-MS analysis of iridium in skin samples; assay type: in vivo; conditions: dosed STZ and HFD/STZ mice
Method: STZ mice were obtained by a single injection of high-dose streptozotocin (150 mg/kg) (Supplementary FIG. 10a). HFD/STZ mice were generated by 8 weeks high-fat diet feeding, followed by low-dose streptozotocin injection for 7 days (40 mg/kg/day) (Supplementary FIG. 11a). 3 days after streptozotocin injection, STZ or HFD/STZ mice with fasting blood glucose levels between 15 and 28 mmol/L were considered as diabetic mice and used in wound healing experiments. STZ and HFD/STZ mice were intraperitoneally injected with either vehicle (PEG 400: distilled water=6:4, v/v) or 1.25 mg/kg complex 1a every other day for 8 days, respectively.

[4] = test system: HIF-1α, VEGF, GLUT1 and EPO levels in HEK293 cells; assay: Western blotting of HIF-1α and HIF-1α target gene products in HEK293 cells; assay type: cell-based, Human; conditions: 2 h
Method: FIG. 3 depicts the effect of complex 1a on HIF-1α target gene products in cellulo. (A) Effect of complex 1a on specific proteins (GLUT1, VEGF, and EPO) mediated by HIF-1α in HEK293 cells. HEK293 cells were treated with 1a for 2 h. Cell lysis were collected and analyzed by the Western blotting. (B) Complex 1a has no effect on HIF-1α accumulation in a VHL null cancer cell line. A498 (VHL-null), or HEK293 cells were treated with 1% DMSO, 1a (3 μM), VH298 (100 μM), and FG-4592 (100 μM) for 2 h before lysis. (C) Effect of complex 1a on EPO, GLUT1, and VEGF levels in HEK293 cells with or without HIF-1α knockdown. Left: The expression levels of EPO, GLUT1, and VEGF in HEK293 cells with or without knockdown HIF-1α in the presence or absence of 1a. Right: Densitometry analysis of EPO, GLUT1, and VEGF levels on the Western blot. HIF-1α siRNA [sense, 5′-[…]-3′ (SEQ ID NO:1), antisense, 5′-[…]-3′ (SEQ ID NO:2)]. Negative control (NC) siRNA [sense, 5′-[…]-3′ (SEQ ID NO:3), antisense, 5′-[…]-3′ (SEQ ID NO:4)]. Data are expressed as means±SD (n=3 independent experiments), P values were calculated using a two-sided t-test. #P<0.05, P<0.01 HIF-1α siRNA vs. NC siRNA, *P<0.05, **P<0.01 1a vs. vehicle/DMSO group, respectively.
Therefore, the effect of complex 1a on HIF-1α and HIF-1α target protein levels in cellulo was investigated. […]

[5] = normal and diabetic mice, 8 days post-injury

COc1cc[n+]2c3c1ccc1c(OC)cc[n+](c13)[Ir-3]213([c]2ccccc2-c2cccc[n+]21)[c]1ccccc1-c1cccc[n+]13.F[P-](F)(F)(F)(F)F [1a]
HIF-1α target genes in wound tissue, qRT-PCR, WT/NC mice ([1]; WT/NC mice): weaker effects
Expression of HIF-1α, VEGF, GLUT1 and EPO in wound tissue (Western blotting) ([1]; WT/NC, db/db, HFD/STZ and STZ groups, 8 days post-wounding, vs vehicle): significantly increased
HIF-1α target genes (HSP-90, VEGFR-1, SDF-1, SCF, Tie-2) in wound tissue, qRT-PCR, diabetic mice ([1]; diabetic mice): also increased in the wound tissue of 1a-treated diabetic mice
Microvessel density in wound areas (CD31 immunostaining) ([1]; normal and diabetic groups, 8 days post-injury): significantly enhanced microvessel density
Skin blood flow rate (skin perfusion pressure test) ([1]; normal and diabetic mice, 2 days post-injury): remarkably increased skin blood flow rate
Collagen deposition in wound areas [1, 5]: enhanced collagen deposition in wound areas
Skin thickness (H&E, Masson's trichrome) [1, 5]: increased skin thickness
HRE-driven luciferase activity compared to positive control P1 (and parent complex 1) [2]: about twice as potent as both the parent complex 1 as well as the positive control compound P1
HRE-driven luciferase activity, second round of screening ([2]; complexes 1a-1n, ranking and comparison in words): highest activation of HRE-drive luciferase activity
Dose-response of HRE-driven luciferase activity ([2]; indicated concentrations): dose-dependent activation of HRE-driven luciferase activity
Iridium in skin samples (ICP-MS) [3]: confirmed the presence of iridium in skin samples
Expression levels of HIF-1α, VEGF, GLUT1 and EPO [4]: increased in a dose-dependent manner
